Several values for one entry are separate records, joined by “and”; a condition that tells them apart may be missing. Equal entries are not always repeated. Inconclusive results are not listed.
Test system: CD8F1 mice, subcutaneous mammary adenocarcinoma, T/C%
Assay: NCI In Vivo Anticancer Drug Screen. Data for tumor model Mammary Adenocarcinoma CD8F1 (subcutaneous) in CD8F1
Conditions: higher = larger tumour
Method: The antitumor activity of compounds was measured in mice bearing transplantable tumors. Survival or tumor size were measured and the results are expressed as the measurement made in the treated group (T) divided by the measurement made in the vehicle treated control group (C). The tumor model used in this assay is Mammary Adenocarcinoma CD8F1 (subcutaneous) in CD8F1

[1] = endpoint: median tumor weight (est.), dose: 12.5 mg/kg/injection, schedule: Q07DX005 (ip), vehicle: saline with Tween-80
[2] = endpoint: median tumor weight (est.), dose: 25.0 mg/kg/injection, schedule: Q07DX005 (ip), vehicle: saline with Tween-80
[3] = endpoint: median tumor weight (est.), dose: 25.0 mg/kg/injection, schedule: Q07DX005 (ip), vehicle: saline
[4] = endpoint: median tumor weight (est.), dose: 50.0 mg/kg/injection, schedule: Q07DX005 (ip), vehicle: saline with Tween-80
[5] = endpoint: median tumor weight (est.), dose: 50.0 mg/kg/injection, schedule: Q07DX005 (ip), vehicle: saline
[6] = endpoint: median tumor weight (est.), dose: 100.0 mg/kg/injection, schedule: Q07DX005 (ip), vehicle: saline
[7] = endpoint: median tumor weight (est.), dose: 100.0 mg/kg/injection, schedule: Q07DX005 (ip), vehicle: saline with Tween-80
[8] = endpoint: median tumor weight (est.), dose: 200.0 mg/kg/injection, schedule: Q07DX005 (ip), vehicle: saline with Tween-80
[9] = endpoint: median tumor weight change, dose: 125.0 mg/kg/injection, schedule: Q01DX001 (ip), vehicle: saline with Tween-80
[10] = endpoint: median tumor weight change, dose: 250.0 mg/kg/injection, schedule: Q01DX001 (ip), vehicle: saline with Tween-80
[11] = endpoint: median tumor weight change, dose: 500.0 mg/kg/injection, schedule: Q01DX001 (ip), vehicle: saline with Tween-80
[12] = endpoint: median tumor weight change, dose: 1000.0 mg/kg/injection, schedule: Q01DX001 (ip), vehicle: saline with Tween-80
[13] = endpoint: median tumor weight change, dose: 62.5 mg/kg/injection, schedule: Q01DX001 (ip), vehicle: saline with Tween-80

## COc1cc(O)c2c(O)c3c(c4c2c1[C@]1(C4)C(C)=CCCC1(C)C)[C@H](O)[C@@]1(O)CC(=O)C(C(N)=O)=C(O)[C@@]1(O)C3=O
endpoint: median tumor weight (est.), dose: 6.25 mg/kg/injection, schedule: Q07DX005 (ip), vehicle: saline with Tween-80
  T/C: 56 % of control
endpoint: median tumor weight (est.), dose: 6.25 mg/kg/injection, schedule: Q07DX005 (ip), vehicle: saline
  T/C: 47 % of control
[1]
  T/C: 92 % of control
endpoint: median tumor weight (est.), dose: 12.5 mg/kg/injection, schedule: Q07DX005 (ip), vehicle: saline
  T/C: 58 % of control
[2]
  T/C: 95 % of control
[3]
  T/C: 87 % of control
[4]
  T/C: 89 % of control
[5]
  T/C: 81 % of control
[6]
  T/C: 37 % of control

## Nc1cc2[nH]cnc2c(=O)[nH]1
endpoint: mean tumor weight, dose: 20.0 mg/kg/injection, schedule: Q07DX006 (ip), vehicle: saline
  T/C: 83 % of control
endpoint: mean tumor weight, dose: 40.0 mg/kg/injection, schedule: Q07DX006 (ip), vehicle: saline
  T/C: 50 % of control
endpoint: mean tumor weight, dose: 80.0 mg/kg/injection, schedule: Q07DX006 (ip), vehicle: saline
  T/C: 76 % of control
endpoint: median tumor weight (est.), dose: 12.5 mg/kg/injection, schedule: Q07DX005 (ip), vehicle: suspension in saline
  T/C: 56 % of control
endpoint: median tumor weight (est.), dose: 25.0 mg/kg/injection, schedule: Q07DX005 (ip), vehicle: suspension in saline
  T/C: 79 % of control
endpoint: median tumor weight (est.), dose: 50.0 mg/kg/injection, schedule: Q07DX005 (ip), vehicle: suspension in saline
  T/C: 56 % of control
endpoint: median tumor weight (est.), dose: 100.0 mg/kg/injection, schedule: Q07DX005 (ip), vehicle: suspension in saline
  T/C: 80 % of control
endpoint: median tumor weight (est.), dose: 200.0 mg/kg/injection, schedule: Q07DX005 (ip), vehicle: suspension in saline
  T/C: 64 % of control

## O=P1(NCCCl)OCCCN1CCCl (centres undefined)
[3]
  T/C: 26 % of control and 29 % of control
[5]
  T/C: 11 % of control and 12 % of control
[6]
  T/C: 6 % of control

## CC(=O)OCC1(C)NC(=O)c2ccccc2O1 (centres undefined)
[1]
  T/C: 18 % of control
[2]
  T/C: 40 % of control
[4]
  T/C: 18 % of control
[7]
  T/C: 37 % of control
[8]
  T/C: 34 % of control
endpoint: median tumor weight (est.), dose: 400.0 mg/kg/injection, schedule: Q07DX005 (ip), vehicle: saline with Tween-80
  T/C: 24 % of control

## O=C(/C=C(\Cl)C(=O)NO)NO
endpoint: median tumor weight change, dose: 62.5 mg/kg/injection, schedule: Q01DX001 (ip), vehicle: suspension in saline
  T/C: 111 % of control
endpoint: median tumor weight change, dose: 125.0 mg/kg/injection, schedule: Q01DX001 (ip), vehicle: suspension in saline
  T/C: 79 % of control
endpoint: median tumor weight change, dose: 250.0 mg/kg/injection, schedule: Q01DX001 (ip), vehicle: suspension in saline
  T/C: 83 % of control

## BrC1c2cccc3cccc(c23)C1Br (centres undefined)
[1]
  T/C: 113 % of control
[2]
  T/C: 88 % of control
[4]
  T/C: 111 % of control
[7]
  T/C: 117 % of control
[8]
  T/C: 85 % of control

## CSc1ncnc2c1ncn2C1OC(CO)C(O)C1O (centres undefined)
endpoint: median tumor weight change, dose: 16.0 mg/kg/injection, schedule: Q01DX001 (ip), vehicle: saline + alcohol
  T/C: 67 % of control
endpoint: median tumor weight change, dose: 31.0 mg/kg/injection, schedule: Q01DX001 (ip), vehicle: saline + alcohol
  T/C: 82 % of control
endpoint: median tumor weight change, dose: 62.0 mg/kg/injection, schedule: Q01DX001 (ip), vehicle: saline + alcohol
  T/C: 52 % of control
endpoint: median tumor weight change, dose: 62.5 mg/kg/injection, schedule: Q01DX001 (ip), vehicle: saline + alcohol
  T/C: 79 % of control
endpoint: median tumor weight change, dose: 125.0 mg/kg/injection, schedule: Q01DX001 (ip), vehicle: saline + alcohol
  T/C: 52 % of control and 70 % of control
endpoint: median tumor weight change, dose: 250.0 mg/kg/injection, schedule: Q01DX001 (ip), vehicle: saline + alcohol
  T/C: 10 % of control and 12 % of control

## CCN1C=C/C(=C\C=C/c2cc[n+](CC)c3ccccc23)c2ccccc21
endpoint: median tumor weight (est.), dose: 0.06 mg/kg/injection, schedule: Q07DX005 (ip), vehicle: saline
  T/C: 123 % of control
endpoint: median tumor weight (est.), dose: 0.06 mg/kg/injection, schedule: Q07DX005 (ip), vehicle: suspension in saline
  T/C: 104 % of control
endpoint: median tumor weight (est.), dose: 0.12 mg/kg/injection, schedule: Q07DX005 (ip), vehicle: saline
  T/C: 88 % of control
endpoint: median tumor weight (est.), dose: 0.12 mg/kg/injection, schedule: Q07DX005 (ip), vehicle: suspension in saline
  T/C: 83 % of control
endpoint: median tumor weight (est.), dose: 0.25 mg/kg/injection, schedule: Q07DX005 (ip), vehicle: saline
  T/C: 150 % of control
endpoint: median tumor weight (est.), dose: 0.25 mg/kg/injection, schedule: Q07DX005 (ip), vehicle: suspension in saline
  T/C: 119 % of control
endpoint: median tumor weight (est.), dose: 0.5 mg/kg/injection, schedule: Q07DX005 (ip), vehicle: saline
  T/C: 109 % of control
endpoint: median tumor weight (est.), dose: 1.0 mg/kg/injection, schedule: Q07DX005 (ip), vehicle: saline
  T/C: 101 % of control
endpoint: median tumor weight (est.), dose: 1.0 mg/kg/injection, schedule: Q07DX005 (ip), vehicle: suspension in saline
  T/C: 75 % of control

## CC(O)CCC(=O)c1ccoc1 (centres undefined)
endpoint: median tumor weight change, dose: 3.32 mg/kg/injection, schedule: Q03HX003 (ip), vehicle: saline
  T/C: 89 % of control
endpoint: median tumor weight change, dose: 6.65 mg/kg/injection, schedule: Q03HX003 (ip), vehicle: saline
  T/C: 101 % of control

## CCCCCCC(=O)CC(SCC)c1ccccc1Cl (centres undefined)
[9]
  T/C: 108 % of control
[10]
  T/C: 72 % of control
[11]
  T/C: 77 % of control
[12]
  T/C: 72 % of control
endpoint: median tumor weight change, dose: 2000.0 mg/kg/injection, schedule: Q01DX001 (ip), vehicle: saline with Tween-80
  T/C: 86 % of control

## CN(C)c1ccc(C(=C2C=CC(=[N+](C)C)C=C2)c2ccc(N(C)C)cc2)cc1 (tested in a mixture with another compound)
endpoint: median tumor weight change, dose: 2.5 mg/kg/injection, schedule: Q01DX001 (ip), vehicle: saline with Tween-80
  T/C: 75 % of control
endpoint: median tumor weight change, dose: 5.0 mg/kg/injection, schedule: Q01DX001 (ip), vehicle: saline with Tween-80
  T/C: 77 % of control

## Oc1cc2ccccc2c(-c2c(O)c(O)cc3ccccc23)c1O
[2]
  T/C: 67 % of control
[7]
  T/C: 55 % of control
[8]
  T/C: 109 % of control

## c1ccc2c(c1)-c1ccccc1C1NC21 (centres undefined)
endpoint: median tumor weight change, dose: 62.0 mg/kg/injection, schedule: Q01DX001 (ip), vehicle: saline with Tween-80
  T/C: 58 % of control

## CN(C)C(=O)c1cccc(COc2ccc(N3C(N)=NC(N)=NC3(C)C)cc2Cl)c1
endpoint: median tumor weight (est.), dose: 8.0 mg/kg/injection, schedule: Q07DX005 (ip), vehicle: suspension in saline
  T/C: 154 % of control
endpoint: median tumor weight (est.), dose: 16.0 mg/kg/injection, schedule: Q07DX005 (ip), vehicle: suspension in saline
  T/C: 57 % of control
endpoint: median tumor weight (est.), dose: 32.0 mg/kg/injection, schedule: Q07DX005 (ip), vehicle: suspension in saline
  T/C: 64 % of control

## C=COC(=O)C(Cc1ccccc1)NC(=O)OCc1ccccc1 (centres undefined)
[13]
  T/C: 103 % of control
[9]
  T/C: 58 % of control
[10]
  T/C: 46 % of control
[11]
  T/C: 33 % of control
[12]
  T/C: 75 % of control

## COc1cc(NCCCCCCCNC(C)C)c2nccc(C)c2c1
endpoint: median tumor weight change, dose: 31.25 mg/kg/injection, schedule: Q01DX001 (ip), vehicle: saline
  T/C: 70 % of control
endpoint: median tumor weight change, dose: 62.5 mg/kg/injection, schedule: Q01DX001 (ip), vehicle: saline
  T/C: 72 % of control

## N#CCCSC(=S)C1CCCC1=N (centres undefined)
[9]
  T/C: 44 % of control
[10]
  T/C: 98 % of control
[11]
  T/C: 86 % of control and 108 % of control

## CCCNC1=C(C)C(=O)C2=C(C1=O)[C@H](COC(N)=O)[C@]1(OC)[C@@H]3N[C@@H]3CN21
endpoint: median tumor weight change, dose: 3.75 mg/kg/injection, schedule: Q01DX001 (ip), vehicle: saline
  T/C: 7 % of control
endpoint: median tumor weight change, dose: 7.5 mg/kg/injection, schedule: Q01DX001 (ip), vehicle: saline
  T/C: 13 % of control
endpoint: median tumor weight change, dose: 15.0 mg/kg/injection, schedule: Q01DX001 (ip), vehicle: saline
  T/C: -66 % of control

## COc1cccc2c1C(=O)c1c(O)c3c(c(O)c1C2=O)CC(O)(/C(C)=N/NC(=O)CCC(=O)N/N=C(\C)C1(O)Cc2c(O)c4c(c(O)c2C(OC2CC(N)C(O)C(C)O2)C1)C(=O)c1c(OC)cccc1C4=O)CC3OC1CC(N)C(O)C(C)O1 (centres undefined)
endpoint: median tumor weight (est.), dose: 1.5 mg/kg/injection, schedule: Q07DX005 (ip), vehicle: water
  T/C: 167 % of control
endpoint: median tumor weight (est.), dose: 6.0 mg/kg/injection, schedule: Q07DX005 (ip), vehicle: water
  T/C: 45 % of control
endpoint: median tumor weight (est.), dose: 12.0 mg/kg/injection, schedule: Q07DX005 (ip), vehicle: water
  T/C: 17 % of control and 40 % of control
endpoint: median tumor weight (est.), dose: 24.0 mg/kg/injection, schedule: Q07DX005 (ip), vehicle: water
  T/C: 7 % of control

## COc1ccc(-c2csc(=[N+]3CCCCC3)s2)cc1
endpoint: median tumor weight change, dose: 31.0 mg/kg/injection, schedule: Q01DX001 (ip), vehicle: saline with Tween-80
  T/C: 194 % of control
endpoint: median tumor weight change, dose: 31.0 mg/kg/injection, schedule: Q01DX001 (ip), vehicle: water
  T/C: 75 % of control

## Nc1ccc(S(=O)(=O)c2ccc(N)cc2)cc1
endpoint: median tumor weight change, dose: 31.25 mg/kg/injection, schedule: Q01DX001 (ip), vehicle: saline with Tween-80
  T/C: 106 % of control
[13]
  T/C: 92 % of control
[9]
  T/C: 87 % of control
[10]
  T/C: 88 % of control
[11]
  T/C: 80 % of control
